Values joined by “and” are separate entries in the source; they are usually repeats but may differ in a detail not shown here. Equal values may be shown once.
Columns and labels:
[1] = Steady-state absorption and fluorescence in PBS; assay type: physicochemical; details: PBS pH = 7.4
Procedure: Steady-State Fluorescence and Absorption Measurements. The fluorescence quantum yields (ΦF) of Ce6 and conjugates in PBS pH 7.4 were determined by a relative method. Ce6 in the buffer at pH 7.4 with the quantum yield of 0.18 [24,32,33] was used as a reference.
The absorption profile of Ce6 and conjugate in PBS of concentration (0.06–1µM) was recorded in Shimadzu spectrophotometer (UV-2101 PC, Duisburg, Germany).
The fluorescence emission of photosensitizers was recorded in a Perkin-Elmer spectrofluorimeter (LS 50B, Massachussetts, USA). Light at 408 nm was used for excitation. The concentration range of compounds matched to the O.D. up to 0.1.

[2] = Photobleaching under 652 nm irradiation in PBS; assay type: physicochemical
Procedure: Photobleaching measurements. The loss of photosensitizer absorbance and fluorescence during irradiation was used to monitor photobleaching. Solutions of Ce6 and Ce6-conjugates were prepared in PBS pH = 7.4. The concentration of photosensitizers were adjusted so that all absorb the same number of photons at irradiated region (O.D. = 0.014 at the λirr. = 652 nm (Biolitec pharma, UK). Data was acquired in quartz cuvettes in aerobic conditions using stirring under uniform, measured irradiation at 5 mWcm^-2. At intervals, the cuvette was removed from magnetic stirrer and absorption and fluorescence emission spectrum (λexc = 405 nm) acquired. The initial absorption bleaching rate constants (kblA) for Ce6 and conjugates were evaluated as reported.

[3] = pH titration of fluorescence/absorbance (pKa); assay type: physicochemical; details: Fmax/A(λexc) versus pH, sigmoidal fit; PBS titrated with HNO3 and NaOH over pH 4.0-8.5; 0.8 µM; λexc = 408 nm
Procedure: pH measurements. The pH titration of PBS was performed with HNO3 and NaOH over pH 4.0-8.5. The final concentration of Ce6 and Ce6-conjugates in solution was 0.8 µM. The pH was measured by Sentron pH meter (Sentron Europe, NL) and the absorption and fluorescence emission (λexc = 408 nm) profiles of solutions were recorded. The inflection point of titration curves (pKa) were evaluated as reported. Briefly, the results of fluorescence titrations are presented in terms of a plot of fluorescence intensity as a function of pH with the constant concentration of the compound used throughout measurements. However, variations of fluorescence intensity are due to at least two contributions: the changes of molar extinction coefficient (differed absorbed intensity) and the changes of quantum efficiency with pH. To eliminate the influence of the molar extinction coefficient variations, the ratio of fluorescence intensity at the peak position to the absorbance at the excitation wavelength was plotted, followed by sigmoidal function fitting procedure (Figures S2-S4).

[4] = 1-Octanol/PBS partition coefficient; assay type: physicochemical; details: 1-octanol / PBS pH = 7.4; Poct/buffer = Coct/Cbuffer; stock 0.6 mM in DMSO; duplicates
Procedure: Partition coefficient. Stock solutions of Ce6 and conjugates (0.6 mM) were prepared in DMSO. Lipophilicity was characterized by their partition coefficient Poct/buffer = Coct/Cbuffer between two solvents 1-octanol (oct) and PBS, pH = 7.4 (buffer). Measurements were carried out in duplicates as described by Cunderlikova et al.

K562 sst2+ cells [5] = assay: In vitro PDT phototoxicity, K562 sst2+ cells; assay type: cell-based, human
Procedure: In vitro PDT experiments were performed to determine the phototoxicity of free Ce6 and conjugates. K562 sst2+ and WT cells were seeded in L-polylysine-coated (10 µg/ml) 96-well (8×10^3/well) and 24-well (4×10^4/well) and incubated overnight in 5% CO2 at 37°C. […] After incubation, cells were washed. Fresh serum-free medium was added, and cells were illuminated with 652 nm to a dose from 0.5 to 5 J cm^−2 at 5 mW.cm^−2. Thereafter, serum-containing medium was added and cells were allowed to grow for an additional 3 days in 5% FCS medium. Toxicity was determined by: measurement of DNA contents using the bisbenzimide fluorescent dye (Hoechst 33258, Boehring Diagnostics, CA, USA) and measurement of mitochondrial dehydrogenase cleavage of WST-1 reagent (Roche Diagnostics, Germany), [39]. Experiments were done in triplicates.

K562 sst2+ cells [6] = assay: Cellular uptake in K562 sst2+ and WT cells; assay type: cell-based, human; details: 1 µM
Procedure: Stock solutions of Ce6 and Ce6-conjugates (1 mM) were dissolved in 80% DMSO and were stored in the dark at −20°C. Before experiments, the solutions were diluted to a concentration of 0.1 mM in 20% DMSO. K562 sst2+ or WT (3×10^5) in 1 ml RPMI 1640 serum-free or supplemented with 5% FCS were incubated with Ce6 or with conjugate (1 µM) for 15 min to 24 h in the dark at 37°C. After incubation, the cells were centrifuged, cell pellet dissolved in 2% SDS and fluorescence emission spectra (λexc = 405 nm) recorded. Photosensitizer concentrations were calculated in triplicate according to a calibration curve generated by mixing a known concentration of photosensitizer with a lysated control samples.

[7] = test system: sst2+ AR42J acinar pancreas tumors; assay: Intra-vital fluorescence pharmacokinetics in AR42J tumors in rat skin-fold chambers; assay type: in vivo; details: i.v. tail vein, conjugate 1 0.67 mg/kg, Ce6 0.2 mg/kg, rat skin-fold chamber
Procedure: Intra-vital confocal fluorescence imaging was performed in single sided rat skin-fold chambers transplanted with sst2 ^+ AR42J acinar pancreas tumors as described previously. The study was approved by the animal experimental committee of the Erasmus MC. Chambers were prepared in 12 animals divided into three groups. […] The first group of animals received Ce6 at a dose of 0.2 mg/kg, the second group received conjugate 1 at a dose of 0.67 mg/kg such that the same number of Ce6 molecules were administered to each animal; (equivalent Ce6 concentration of 2.011×10^−4 M).
Animals were anesthetized using isoflurane/O2 and autofluorescence images were recorded. Drug was administered intravenously into the tail vein. Fluorescence images were acquired 5 and 20 minutes after conjugate administration after which the animal was allowed to recover. Subsequent fluorescence images were acquired under anesthesia at 1, 4, 24, 72 and 96 hrs. […] Confocal fluorescence imaging (LSM 510 Meta (Zeiss, Germany)) was performed using a 40× objective. The distribution of Ce6 fluorescence was mapped under 514 nm laser excitation in the lambda mode (539–753 nm). […] Spectra acquired from individual pixels were analyzed as a linear combination of basis spectra and fitted using a singular value decomposition algorithm. The fluorescence of Ce6 and conjugate 1 was determined in ROIs. […]

[8] = PBS pH = 7.4; used as reference; cited from earlier work
From the text: The fluorescence quantum yield of Ce6 in neutral pH was similar to conjugates 1 (ΦF = 0.18 for Ce6 and ΦF = 0.20 for 1).

[9] = PBS pH = 7.4; used as reference; cited from earlier work; remark: listed apart in the source

C=Cc1c(C)c2cc3nc(c(CC(=O)O)c4[nH]c(cc5nc(cc1[nH]2)C(C)=C5CC)c(C)c4C(=O)O)[C@@H](CCC(=O)O)[C@@H]3C [Ce6, Chlorin e6]
full width at half maximum of the Q(0,0) absorption band [1]: 21 nm
full width at half maximum of the Soret absorption band [1]: 27 nm
maximum of fluorescence band [1]: 661 nm
maximum of the Q(0,0) absorption band [1]: 655 nm
maximum of the Soret absorption band [1]: 402 nm
kblA, rate constant of initial absorption bleaching ([2]; PBS pH = 7.4, 652 nm irradiation at 5 mWcm^-2, O.D. = 0.014 at 652 nm, aerobic, stirring): 25.69 x 10^−2 J^−1 cm^2
photostability ([2]; PBS, 652 nm irradiation, fluorescence bleaching): low photostability
pKa, inflection point of pH titration curve [3]: 6.71 and 6.71±0.0947
LogP, logarithm of partition coefficient [4]: 0.005±0.05
cell survival after PDT compared to control cells (K562 sst2+ cells [5]; K562 sst2+, 1 µM, 4 h incubation, serum-free, 652 nm, 5 J.cm^−2, read after 3 days): almost complete inhibition of cell viability
light dose from which phototoxicity was seen (K562 sst2+ cells [5]; K562 sst2+, 1 µM, 4 h incubation, 652 nm): 0.5 J.cm^−2
effect on cell growth of photosensitizer alone in the absence of light (K562 sst2+ cells [5]; dark toxicity, K562 cells): no effect on cell growth
uptake in sst2+ cells compared to WT cells (factor) (K562 sst2+ cells [6]; serum-free and 5% FCS medium, fluorescence of lysate, λexc = 405 nm): same result as for conjugate 2
concentration taken up by sst2+ cells (K562 sst2+ cells [6]; 4 h incubation, K562 sst2+): 90 nM
time of fluorescence peak in tumor tissue [7]: gradually increased over the first 3 days
ΦF, fluorescence quantum yield (reference value) [8]: 0.18
ΦΔ, singlet oxygen quantum yield (reference value) [9]: 0.64 and 0.64±0.08

From article PMC4128677, “Somatostatin Analogues for Receptor Targeted Photodynamic Therapy” (PLoS ONE, 2014)
